Assay results taken from patent publication US20210379010A1, “COMPOSITIONS COMPRISING CANNABINOIDS FOR USE IN THE TREATMENT OF BIOFILM AND CONDITIONS ASSOCIATED WITH MICROBIAL, FUNGAL, BACTERIAL INFECTIONS” (Yissum Research Development Company of The Hebrew …, priority 2018, published 2021).

Legend:
[1] = test system: fluconazole resistant C. albicans strain DSY551 biofilm; conditions: Table 2
[2] = test system: fluconazole resistant C. albicans strain DSY735 biofilm; conditions: Table 2
[3] = MBIC of fluconazole in combination with ARAS

With `OC(Cn1cncn1)(Cn1cncn1)c1ccc(F)cc1F` [FLU, fluconazole, reference compound] the “FBIC FLU” value [1, 3] was 2 µg/mL, the “MBIC FLU” value ([1]; fluconazole alone) was >64 µg/mL and the “FBIC FLU” value [2, 3] was 4 µg/mL. For the same compound, the “MBIC FLU” value ([2]; fluconazole alone) was >64 µg/mL.
